From patent publication US20130090320A1, “METHOD OF TREATING PROSTATE CANCER” (NIIKI PHARMA INC., priority 2010, published 2013)
Values belong to the compound of their own block, whether it stands above or below them.

How the values were obtained:
[1] = test system: LNCaP clone FGC (prostate carcinoma)
Experimental: (§1) To test the activities of sodium trans-[tetrachlorobis(1H-indazole)ruthenate(III)], ATCC's MTT Cell Proliferation Assay® was performed using human prostate cancer cell lines LNCaP clone FGC (prostate carcinoma) and PC-3 (Prostate carcinoma). Stock cultures were allowed to grow to 70-80% confluence for this study. The anti-proliferative activity of sodium trans-[tetrachlorobis(1H-indazole)[…]], against the indicated cell lines was evaluated in vitro using the ATCC's MTT Cell Proliferation Assay (Catalog No. 30-1010K). LNCaP clone FGC plates were seeded with 4,000 cells/well, and the cells were grown in RPMI 1640 medium containing 1% HEPES (1M solution), 1% sodium pyruvate, 1% glucose (45% solution), 10% heat-inactivated FBS and 1% penicillin/strep/glutamine. PC-3 plates were seeded with 6,000 cells/well, and the cells were grown in Ham's F12 medium containing 10% heat-inactivated FBS, and 1% penicillin/strep/glutamine. Cultures were maintained in a 37° C. humidified 5% CO2/95% air atmosphere. The cells were treated with sodium trans-[tetrachlorobis(1H-indazole)ruthenate(III)] at 1,000 μM, or a series of 4× dilutions thereof (250 μM, 62.5 μM, etc.). 100 μl of medium was removed from each well at 72 hours post-treatment and 10 μl MTT reagent was added to each well. […] The plates were left overnight at room temperature in the dark and was read on a plate reader using SoftMax® Pro (version 5.2, Molecular Devices).
(§2) The absorbance data was analyzed as follows: Absorbance values were converted to Percent of Control and plotted against test agent concentrations for IC50 calculations using SoftMax® Pro (version 5.2, Molecular Devices). […] Percent of Control values were calculated by dividing the absorbance values for each test well by the No Drug Control average (column 11 values; cells+vehicle control) and multiplying by 100. Plots of Compound Concentration versus Percent of Control were analyzed using the 4-parameter equation to obtain IC50 values and other parameters that describe the sigmoidal dose response curve. […]

[2] = test system: PC-3 (Prostate carcinoma); details: PC-3 cell line, MTT, 72 hours post-treatment
Experimental: as §1, §2

PC-3 cell line = details: Domingo-Domenech et al., Clin. Cancer Res. 2006; cited from earlier work
LNCaP cell line [3] = details: Domingo-Domenech et al., Clin. Cancer Res. 2006; cited from earlier work
LNCaP cell line [4] = assay: Docetaxel IC50 in LNCaP from published literature; format: cell-based, human; details: ratio of literature docetaxel IC50 in LNCaP to IC50 in PC-3
Experimental: In addition, the IC50 values of docetaxel in the LNCaP and PC-3 cell lines were obtained from published literature. The ratios of IC50 values of sodium trans-[tetrachlorobis(1H-indazole)ruthenate(III)] in a cell line sensitive to one of the other drugs and a cell line insensitive to the same drug were calculated. The results are shown in Table 1 below (“Test Drug” in the table denotes sodium trans-[tetrachlorobis(1H-indazole)ruthenate(III)]). […] See Domingo-Domenech et al., Clin. Cancer Res., 12(18):5578-5586 (2006); Blagosklonny et al., J. Urol. 163(3):1022-6 (2000). As such, sodium trans-[tetrachlorobis(1H-indazole)ruthenate(III)] is potentially effective in treating prostate cancer resistant to such other drugs.

SMILES: [Cl][Ru-]([Cl])([Cl])[Cl].[Na+].c1ccc2[nH]ncc2c1.c1ccc2[nH]ncc2c1 [sodium trans-[tetrachlorobis(1H-indazole)ruthenate(III)]]
IC50 ([1]; LNCaP cell line, MTT, 72 hours post-treatment): 17.3 µM | IC50 Ratio (LNCaP/PC-3) ([1]; ratio of Test Drug IC50 in LNCaP to IC50 in PC-3): 0.41 | IC50 [2]: 41.8 µM

IC50 Ratio (LNCaP/PC-3) (LNCaP cell line [4]): 12-20
SMILES: CC(=O)O[C@@]12CO[C@@H]1C[C@H](O)[C@@]1(C)C(=O)[C@H](O)C3=C(C)[C@@H](OC(=O)[C@H](O)[C@@H](NC(=O)OC(C)(C)C)c4ccccc4)C[C@@](O)([C@@H](OC(=O)c4ccccc4)[C@H]21)C3(C)C [Docetaxel, docetaxel]
IC50 (PC-3 cell line): 0.0025 to 0.005 µM | IC50 (LNCaP cell line [3]): 0.05 to 0.06 µM
